Measurements: publication PMC6747015, “Structure–function study of a novel inhibitor of the casein kinase 1 family in Arabidopsis thaliana” (Plant Direct, 2019)

Key:
[1] = system: ATSK (GSK3) family proteins; assay: AMI‐329 bead binding with AMI‐331 competitor, ATSK family; set-up: species or system Arabidopsis thaliana; details: 50 µM AMI‐331 as competitor
Method: (§1) Screening for proteins bound to AMI‐329 beads was done by a method similar to what has previously been described (Uehara et al., 2019). Briefly, two‐week‐old seedlings grown under LD conditions were harvested at time points ZT2, ZT6, ZT9, and ZT17, and stored at −80°C. Proteins from the frozen plant samples were incubated with 0, 5, or 50 µM of AMI‐331 at 4°C for 30 min with rotary mixing. Two technical replicates were used for each experiment. PBS‐washed AMI‐329 beads were added to the protein samples and gently rotated at 4°C for 1 hr. AMI‐329 bead resins were washed with bead buffer (Uehara et al., 2019) six times. The washed resins were suspended in SDS sample buffer and boiled for 8 min. Protein samples were in‐gel‐digested as previously described (Uehara et al., 2019). Peptides were analyzed with a Q Exactive hybrid quadrupole‐orbitrap mass spectrometer (Thermo Fisher Scientific), as described previously (Uehara et al., 2019). MS/MS spectra were interpreted, and peak lists were generated using Proteome Discoverer 2.0.0.802 (Thermo Fisher Scientific). Searches were performed using SEQUEST (Thermo Fisher Scientific) against the Arabidopsis thaliana (TAIR TaxID = 3,702) peptide sequence database. […]
(§2) To examine other potential targets of AMI‐331, we analyzed the spectra for PHA767491 target proteins (Uehara et al., 2019). […]

[2] = system: CPK family; assay: AMI‐329 bead binding with AMI‐331 competitor, CPK family; set-up: species or system Arabidopsis thaliana
Method: as §1, §2

Q: With `C#CCn1c2c(c(Br)c1-c1ccncc1)C(=O)NCC2.Cl` [AMI‐331] as the compound, how does the “Spectra on AMI‐329 beads relative to 0 µM sample” value [1] read?
A: 0%–13%

Q: What about the “Target status from enrichment in 0 µM versus 5 or 50 µM samples” value [2] of the same compound?
A: not a target
